# Data: patent publication US20230365592A1 (Agios Pharmaceuticals, Inc., priority 2022, published 2023)
# Molecular target: T1, human PAH with the R408W mutation (Homo sapiens, UniProt P00439, R408W)
# T1 construct: expressed in transfected cells
# T1 sequence (P00439 1-452 R408W): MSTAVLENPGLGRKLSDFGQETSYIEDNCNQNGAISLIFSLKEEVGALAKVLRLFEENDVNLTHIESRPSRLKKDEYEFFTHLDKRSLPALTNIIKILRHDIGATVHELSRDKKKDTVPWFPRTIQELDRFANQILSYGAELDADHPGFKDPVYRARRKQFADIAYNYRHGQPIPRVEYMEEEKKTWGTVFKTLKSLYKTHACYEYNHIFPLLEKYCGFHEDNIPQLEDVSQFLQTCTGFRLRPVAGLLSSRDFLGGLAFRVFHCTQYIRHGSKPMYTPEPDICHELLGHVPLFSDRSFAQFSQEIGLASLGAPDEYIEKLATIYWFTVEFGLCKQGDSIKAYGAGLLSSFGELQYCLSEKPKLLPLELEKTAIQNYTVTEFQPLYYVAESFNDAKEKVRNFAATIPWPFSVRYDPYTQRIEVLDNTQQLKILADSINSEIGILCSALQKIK
# Assay: Cell Based Phenylalanine Flux Assay;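 further: after compound treatment, cells received sepiapterin plus isotope-labelled Phenylalanine for 4 hours, then labelled Tyrosine in the medium was quantified, 10-point 2-fold dilution series run in duplicate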
# Conditions: A375 cells expressing R408W PAH; 24 hrs with compound, then 20 µM sepiapterin and 800 µM 13C9,15N-Phenylalanine for 4 hours; 13C-Tyrosine by LC-MS; average where tested multiple times; read-out: AC50
row,SMILES,AC50
1,Cc1c(C2c3nc[nH]c3CCN2C(=O)c2cnco2)nn2ccccc12 (stereo not shown),1000 to 5000 nM
2,CC(C)(F)c1nnc(N2CCc3[nH]cnc3C2c2cc3c(C4CC4)cccn3n2)o1 (stereo not shown),> 5000 nM
3,Cc1cccc2cc(C3c4nc[nH]c4CCN3C(=O)c3nc(C4CC4)nn3C)nn12 (stereo not shown),1000 to 5000 nM
4,O=C(c1cn[nH]c1Cl)N1CCc2[nH]cnc2C1c1cc2ccccn2n1 (stereo not shown),1000 to 5000 nM
5,"Cc1cccn2nc([C@H]3c4nc[nH]c4CCN3c3nnc(-c4cccnc4)o3)cc12 (single isomer, unassigned)",> 5000 nM
6,COc1ccc2c(C(=O)N3CCc4[nH]cnc4C3c3cc4cccc(C(F)(F)F)n4n3)cnn2c1 (stereo not shown),1000 to 5000 nM

# The remaining lines, values ahead:
row,AC50,SMILES
1,1000 to 5000 nM,Cc1nnc(C(=O)N2CCc3[nH]cnc3C2c2cc3cc(F)ccn3n2)o1 (stereo not shown)
2,1000 to 5000 nM,"COc1cccn2nc([C@@H]3c4nc[nH]c4CCN3c3nnc(C)o3)cc12 (single isomer, unassigned)"

# Same assay, conditions: A375 cells expressing human PAH R408W; 24 hrs compound incubation; 13C-Tyrosine by LC-MS; average where tested multiple times; read-out: AC50
row,SMILES,AC50
1,"CC(C)c1cccn2nc([C@H]3c4nc[nH]c4CCN3c3nnc(-c4ncccc4F)o3)cc12 [Example 2354, (R)-2-(3-fluoropyridin-2-yl)-5-(4-(4-isopropylpyrazolo[1,5-a]pyridin-2-yl)-1,4,6,7-tetrahydro-5H-imidazo[4,5-c]pyridin-5-yl)-1,3,4-oxadiazole]",> 5000 nM
2,"O=C(c1nnc(-c2cnn(C(F)(F)F)c2)o1)N1CCc2[nH]cnc2[C@@H]1c1cc2ccccn2n1 [Example 2427, (R)-(4-(pyrazolo[1,5-a]pyridin-2-yl)-6,7-dihydro-1H-imidazo[4,5-c]pyridin-5(4H)-yl)(5-(1-(trifluoromethyl)-1H-pyrazol-4-yl)-1,3,4-oxadiazol-2-yl)methanone]",> 5000 nM
3,"Cc1ccn2nc([C@@H]3c4nc[nH]c4CCN3C(=O)c3nnc(-c4ccccn4)o3)cc2c1 [Example 2384, (S)-(4-(5-methylpyrazolo[1,5-a]pyridin-2-yl)-6,7-dihydro-1H-imidazo[4,5-c]pyridin-5(4H)-yl)(5-(pyridin-2-yl)-1,3,4-oxadiazol-2-yl)methanone]",1000 to 5000 nM

# Further lines, results first:
row,AC50,SMILES
1,1000 to 5000 nM,"Cc1cccn2nc([C@@H]3c4nc[nH]c4CCN3C(=O)c3nc4ccccc4s3)cc12 [Example 2502, (S)-benzo[d]thiazol-2-yl(4-(4-methylpyrazolo[1,5-a]pyridin-2-yl)-1,4,6,7-tetrahydro-5H-imidazo[4,5-c]pyridin-5-yl)methanone]"
2,> 5000 nM,"Cc1cccnc1-c1nnc(N2CCc3[nH]cnc3[C@@H]2c2cc3cccc(C)n3n2)o1 [Example 2308, (R)-2-(4-(7-methylpyrazolo[1,5-a]pyridin-2-yl)-1,4,6,7-tetrahydro-5H-imidazo[4,5-c]pyridin-5-yl)-5-(3-methylpyridin-2-yl)-1,3,4-oxadiazole]"

# Same assay, conditions: A375 cells expressing human R408W PAH; 24 hrs compound incubation; 13C-Tyrosine by LC-MS; average where tested multiple times; read-out: AC50
row,SMILES,AC50
1,"Cc1c(-c2nnc(C(=O)N3CCc4[nH]cnc4[C@H]3c3cc4cccc(F)n4n3)o2)cnn1C [Example 1462, (S)-(5-(1,5-dimethyl-1H-pyrazol-4-yl)-1,3,4-oxadiazol-2-yl)(4-(7-fluoropyrazolo[1,5-a]pyridin-2-yl)-6,7-dihydro-1H-imidazo[4,5-c]pyridin-5(4H)-yl)methanone]",< 500 nM
2,"COc1ccc(-c2nnc(C(=O)N3CCc4[nH]cnc4[C@@H]3c3cc4c(F)cccn4n3)o2)nc1 [Example 789, (R)-(4-(4-fluoropyrazolo[1,5-a]pyridin-2-yl)-6,7-dihydro-1H-imidazo[4,5-c]pyridin-5(4H)-yl)(5-(5-methoxypyridin-2-yl)-1,3,4-oxadiazol-2-yl)methanone]",1000 to 5000 nM
3,"Cn1ccc(-c2nnc(C(=O)N3CCc4[nH]cnc4[C@H]3c3cc4c(OC(F)(F)F)cccn4n3)o2)n1 [Example 1702, (S)-(5-(1-methyl-1H-pyrazol-3-yl)-1,3,4-oxadiazol-2-yl)(4-(4-(trifluoromethoxy)pyrazolo[1,5-a]pyridin-2-yl)-6,7-dihydro-1H-imidazo[4,5-c]pyridin-5(4H)-yl)methanone]",< 500 nM
4,"N#Cc1ncoc1C(=O)N1CCc2[nH]cnc2[C@@H]1c1cc2ccc(Br)cn2n1 [Example 683, (R)-5-(4-(6-bromopyrazolo[1,5-a]pyridin-2-yl)-4,5,6,7-tetrahydro-1H-imidazo[4,5-c]pyridine-5-carbonyl)oxazole-4-carbonitrile]",> 5000 nM
5,"Cc1cccn2nc([C@@H]3c4nc[nH]c4CCN3C(=O)c3nnc(-c4cnn(C)c4)o3)cc12 [Example 748, (S)-(5-(1-methyl-1H-pyrazol-4-yl)-1,3,4-oxadiazol-2-yl)(4-(4-methylpyrazolo[1,5-a]pyridin-2-yl)-6,7-dihydro-1H-imidazo[4,5-c]pyridin-5(4H)-yl)methanone]",< 500 nM
6,"Cn1ccc(-c2ccc3c(C(=O)N4CCc5[nH]cnc5[C@@H]4c4cc5c(C(F)(F)F)cccn5n4)cnn3c2)n1 [Example 1597, (R)-(6-(1-methyl-1H-pyrazol-3-yl)pyrazolo[1,5-a)pyridin-3-yl)(4-(4-(trifluoromethyl)pyrazolo[1,5-a]pyridin-2-yl)-6,7-dihydro-1H-imidazo[4,5-c]pyridin-5(4H)-yl)methanone]",> 5000 nM
7,"Cn1cc(-c2nnc(C(=O)N3CCc4[nH]cnc4[C@@H]3c3cc4cccc(F)n4n3)o2)cn1 [Example 1225, (R)-(4-(7-fluoropyrazolo[1,5-a]pyridin-2-yl)-6,7-dihydro-1H-imidazo[4,5-c]pyridin-5(4H)-yl)(5-(1-methyl-1H-pyrazol-4-yl)-1,3,4-oxadiazol-2-yl)methanone]",1000 to 5000 nM
8,"Cc1nc([C@H](C)O)oc1C(=O)N1CCc2[nH]cnc2[C@H]1c1cc2c(C)cccn2n1 [Example 750, (2-((S)-1-hydroxyethyl)-4-methyloxazol-5-yl)((S)-4-(4-methylpyrazolo[1,5-a]pyridin-2-yl)-6,7-dihydro-1H-imidazo[4,5-c]pyridin-5(4H)-yl)methanone]",< 500 nM
9,"CC(C)(C)c1nnc(C(=O)N2CCc3[nH]cnc3[C@H]2c2cc3c(Cl)cccn3n2)o1 [Example 1047, (S)-(5-(tert-butyl)-1,3,4-oxadiazol-2-yl)(4-(4-chloropyrazolo[1,5-a]pyridin-2-yl)-6,7-dihydro-1H-imidazo[4,5-c]pyridin-5(4H)-yl)methanone]",< 500 nM
10,"Cc1ccc2cc([C@H]3c4nc[nH]c4CCN3C(=O)c3ccnn3C(F)F)nn2c1 [Example 1113, (R)-(1-(difluoromethyl)-1H-pyrazol-5-yl)(4-(6-methylpyrazolo[1,5-a)pyridin-2-yl)-6,7-dihydro-1H-imidazo[4,5-c]pyridin-5(4H)-yl)methanone]",1000 to 5000 nM
11,"Cn1nc(C(F)(F)F)nc1C(=O)N1CCc2[nH]cnc2[C@H]1c1cc2c(Cl)cccn2n1 [Example 1052, (S)-(4-(4-chloropyrazolo[1,5-a]pyridin-2-yl)-6,7-dihydro-1H-imidazo[4,5-c]pyridin-5(4H)-yl)(1-methyl-3-(trifluoromethyl)-1H-1,2,4-triazol-5-yl)methanone]",< 500 nM

# Other lines, results leading:
row,AC50,SMILES
1,> 5000 nM,"O=C(c1nnc(C2CC2)o1)N1CCc2[nH]cnc2[C@@H]1c1cc2c(C(F)(F)F)cccn2n1 [Example 943, (R)-(5-cyclopropyl-1,3,4-oxadiazol-2-yl)(4-(4-(trifluoromethyl)pyrazolo[1,5-a]pyridin-2-yl)-6,7-dihydro-1H-imidazo[4,5-c]pyridin-5(4H)-yl)methanone]"
2,500 to 1000 nM,"O=C(c1ccnn1C(F)F)N1CCc2[nH]cnc2[C@H]1c1cc2cc(F)ccn2n1 [Example 1092, (S)-(1-(difluoromethyl)-1H-pyrazol-5-yl)(4-(5-fluoropyrazolo[1,5-a]pyridin-2-yl)-6,7-dihydro-1H-imidazo[4,5-c]pyridin-5(4H)-yl)methanone]"
3,1000 to 5000 nM,"CC(C)(C)c1nnc(C(=O)N2CCc3[nH]cnc3[C@@H]2c2cc3cccc(Cl)n3n2)o1 [Example 1122, (R)-(5-(tert-butyl)-1,3,4-oxadiazol-2-yl)(4-(7-chloropyrazolo[1,5-a]pyridin-2-yl)-6,7-dihydro-1H-imidazo[4,5-c]pyridin-5(4H)-yl)methanone]"
4,< 500 nM,"C[C@@H](O)c1nc(C(F)F)c(C(=O)N2CCc3[nH]cnc3[C@H]2c2cc3ccccn3n2)o1 [Example 690, (4-(difluoromethyl)-2-((R)-1-hydroxyethyl)oxazol-5-yl)((S)-4-(pyrazolo[1,5-a]pyridin-2-yl)-6,7-dihydro-1H-imidazo[4,5-c]pyridin-5(4H)-yl)methanone]"
5,> 5000 nM,"O=C(c1nnc(-c2ncccc2F)o1)N1CCc2[nH]cnc2[C@@H]1c1cc2c(C(F)(F)F)cccn2n1 [Example 904, (R)-(5-(3-fluoropyridin-2-yl)-1,3,4-oxadiazol-2-yl)(4-(4-(trifluoromethyl)pyrazolo[1,5-a]pyridin-2-yl)-6,7-dihydro-1H-imidazo[4,5-c]pyridin-5(4H)-yl)methanone]"
6,< 500 nM,"Cc1cccc2cc([C@@H]3c4nc[nH]c4CCN3C(=O)c3nnc(-c4cnccn4)o3)nn12 [Example 1339, (S)-(4-(7-methylpyrazolo[1,5-a]pyridin-2-yl)-6,7-dihydro-1H-imidazo[4,5-c]pyridin-5(4H)-yl)(5-(pyrazin-2-yl)-1,3,4-oxadiazol-2-yl)methanone]"
7,> 5000 nM,"COc1ccc2c(C(=O)N3CCc4[nH]cnc4[C@@H]3c3cc4c(C(F)F)cccn4n3)cnn2c1 [Example 1677, (R)-(4-(4-(difluoromethyl)pyrazolo[1,5-a]pyridin-2-yl)-6,7-dihydro-1H-imidazo[4,5-c]pyridin-5(4H)-yl)(6-methoxypyrazolo[1,5-a]pyridin-3-yl)methanone]"
